Source: US6310043A (priority 1999, dated 2001)
Where two headings read alike, the source gives them in different places.

Experiments:
SLT-1 (Verotoxin I) = SLT-1 (Verotoxin I) (Bacteriophage H30, UniProt P69178); experiment: biochemical; type: binding, E. coli; settings: for activity relative to the Pk trisaccharide alone: ELISA, VT-I
SLT-1 = SLT-1 (Bacteriophage H30, UniProt P69178); experiment: biochemical; type: binding, E. coli
SLT-1 (VT-1) = SLT-1 (VT-1) (Bacteriophage H30, UniProt P69178); type: binding, E. coli
SLT-1 (VT-1), sequence (P69178 whole entry, looked up): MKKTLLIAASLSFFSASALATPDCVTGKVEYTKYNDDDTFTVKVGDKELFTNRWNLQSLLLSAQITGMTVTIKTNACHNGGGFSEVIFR

SLT-2 (VT-2) = SLT-2 (VT-2) (Escherichia phage 933W, UniProt P09386); type: binding, E. coli
SLT-2 (VT-2), sequence (P09386 whole entry, looked up): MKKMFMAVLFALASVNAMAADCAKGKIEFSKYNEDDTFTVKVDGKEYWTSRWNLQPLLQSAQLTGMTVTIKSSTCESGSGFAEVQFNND

[1] = system: Vero cells exposed to SLT; type: cell-based, African Green Monkey

SLT-1 (Verotoxin I), sequence (P69178 whole entry, looked up): as the sequence (P69178 whole entry, looked up) above
SLT-1, sequence (P69178 21-89 limits assumed): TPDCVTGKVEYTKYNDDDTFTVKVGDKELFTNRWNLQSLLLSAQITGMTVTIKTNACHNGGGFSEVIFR

Row | SMILES | IC50 (SLT-1 (Verotoxin I); IC50) [µM] | IC50 (SLT-1 (Verotoxin I); read-out: IC50) [µM] | Kd (SLT-1) [µM] | IC50 (SLT-1 (VT-1)) [µM] | IC50 (SLT-2 (VT-2)) [µM] | activity relative to the Pk trisaccharide alone (SLT-1 (Verotoxin I)) | activity relative to the bridged trisaccharide dimer (SLT-1 (Verotoxin I); similar ELISA, FIG. 5) | relative inhibition of SLT-1 binding to P^k ligand (in words) (SLT-1 (Verotoxin I); solid phase assays, protocol A or B) | inhibition of cell lysis caused by the SLT [1] | IC50 (SLT-1 (Verotoxin I)) [µM]
1 | CO[C@@H]1O[C@H](CO)[C@@H](O[C@@H]2O[C@H](CO)[C@H](O[C@H]3O[C@H](CO)[C@H](O)[C@H](O)[C@H]3O)[C@H](O)[C@H]2O)[C@H](O)[C@H]1O [P^k -trisaccharide methyl glycoside, reference compound] | 2100 | 2000 | ~1000 | – | – | – | – | – | – | –
2 | CO[C@@H]1O[C@H](CO)[C@@H](O[C@@H]2O[C@H](CO)[C@H](O[C@H]3O[C@H](CO)[C@H](O)[C@H](O)[C@H]3O)[C@H](O)[C@H]2OCCOC(=O)NCC(CNC(=O)OCCO[C@H]2[C@H](O[C@H]3[C@H](O)[C@@H](O)[C@H](OC)O[C@@H]3CO)O[C@H](CO)[C@H](O[C@H]3O[C@H](CO)[C@H](O)[C@H](O)[C@H]3O)[C@@H]2O)OC(=O)NCCCCCCCCNc2c(NCCNC(=O)CSCCCOC[C@H]3O[C@@H](OCCCSCC(=O)NCCNc4c(NCCCCCCCCNC(=O)OC(CNC(=O)OCCO[C@H]5[C@H](O[C@H]6[C@H](O)[C@@H](O)[C@H](OC)O[C@@H]6CO)O[C@H](CO)[C@H](O[C@H]6O[C@H](CO)[C@H](O)[C@H](O)[C@H]6O)[C@@H]5O)CNC(=O)OCCO[C@H]5[C@H](O[C@H]6[C@H](O)[C@@H](O)[C@H](OC)O[C@@H]6CO)O[C@H](CO)[C@H](O[C@H]6O[C@H](CO)[C@H](O)[C@H](O)[C@H]6O)[C@@H]5O)c(=O)c4=O)[C@H](OCCCSCC(=O)NCCNc4c(NCCCCCCCCNC(=O)OC(CNC(=O)OCCO[C@H]5[C@H](O[C@H]6[C@H](O)[C@@H](O)[C@H](OC)O[C@@H]6CO)O[C@H](CO)[C@H](O[C@H]6O[C@H](CO)[C@H](O)[C@H](O)[C@H]6O)[C@@H]5O)CNC(=O)OCCO[C@H]5[C@H](O[C@H]6[C@H](O)[C@@H](O)[C@H](OC)O[C@@H]6CO)O[C@H](CO)[C@H](O[C@H]6O[C@H](CO)[C@H](O)[C@H](O)[C@H]6O)[C@@H]5O)c(=O)c4=O)[C@@H](OCCCSCC(=O)NCCNc4c(NCCCCCCCCNC(=O)OC(CNC(=O)OCCO[C@H]5[C@H](O[C@H]6[C@H](O)[C@@H](O)[C@H](OC)O[C@@H]6CO)O[C@H](CO)[C@H](O[C@H]6O[C@H](CO)[C@H](O)[C@H](O)[C@H]6O)[C@@H]5O)CNC(=O)OCCO[C@H]5[C@H](O[C@H]6[C@H](O)[C@@H](O)[C@H](OC)O[C@@H]6CO)O[C@H](CO)[C@H](O[C@H]6O[C@H](CO)[C@H](O)[C@H](O)[C@H]6O)[C@@H]5O)c(=O)c4=O)[C@@H]3OCCCSCC(=O)NCCNc3c(NCCCCCCCCNC(=O)OC(CNC(=O)OCCO[C@H]4[C@H](O[C@H]5[C@H](O)[C@@H](O)[C@H](OC)O[C@@H]5CO)O[C@H](CO)[C@H](O[C@H]5O[C@H](CO)[C@H](O)[C@H](O)[C@H]5O)[C@@H]4O)CNC(=O)OCCO[C@H]4[C@H](O[C@H]5[C@H](O)[C@@H](O)[C@H](OC)O[C@@H]5CO)O[C@H](CO)[C@H](O[C@H]5O[C@H](CO)[C@H](O)[C@H](O)[C@H]5O)[C@@H]4O)c(=O)c3=O)c(=O)c2=O)[C@H](O)[C@H]1O [Compound 22] | – | 0.00023 | – | 0.0004 | 0.006 | about a million times more active than the trisaccharide alone | about 10,000 times | by far the most active inhibitor of SLT-1 binding to P^k ligand | – | –
3 | CO[C@@H]1O[C@H](CO)[C@@H](O[C@@H]2O[C@H](CO)[C@H](O[C@H]3O[C@H](CO)[C@H](O)[C@H](O)[C@H]3O)[C@H](O)[C@H]2OCCOC(=O)NCC(O)CNC(=O)OCCO[C@H]2[C@H](O[C@H]3[C@H](O)[C@@H](O)[C@H](OC)O[C@@H]3CO)O[C@H](CO)[C@H](O[C@H]3O[C@H](CO)[C@H](O)[C@H](O)[C@H]3O)[C@@H]2O)[C@H](O)[C@H]1O [Bridged P^k -trisaccharide methyl glycoside dimer] | – | – | – | – | – | 38 times | – | – | more effective than a Pk-BSA conjugate at inhibiting cell lysis | 55
